From ChEMBL document CHEMBL1201862, “PubChem BioAssay data set” (2004)
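96-well plates; 48 h exposure; 5 concentrations. Endpoints by linear interpolation between flanking doses. Not reached: highest tested concentration assigned. GI50 marks 50% less growth.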 Calls of active or inactive are those of the source. Rule as the data show it: active = GI50 up to about 1.1 µM and inactive = higher.

Experiments:
Test in all cases: DTP human tumour cell line panel, 48 h
A549 = tested on: A549
SK-MEL-2 = tested on: SK-MEL-2
SF-268 = tested on: SF-268
T47D = tested on: T47D
UO-31 = tested on: UO-31
EKVX = tested on: EKVX
M14 = tested on: M14
BT-549 = tested on: BT-549
HCC 2998 = tested on: HCC 2998
NCI-H23 = tested on: NCI-H23
RXF 393 = tested on: RXF 393
DU-145 = tested on: DU-145
NCI-H460 = tested on: NCI-H460
TK-10 = tested on: TK-10
SR = tested on: SR
UACC-62 = tested on: UACC-62
SNB-19 = tested on: SNB-19
RPMI-8226 = tested on: RPMI-8226
ACHN = tested on: ACHN
UACC-257 = tested on: UACC-257

Row | Compound | GI50 (A549) | GI50 (SK-MEL-2) | GI50 (SF-268) | GI50 (T47D) | GI50 (UO-31) | GI50 (EKVX) | GI50 (M14) | GI50 (BT-549) | GI50 (HCC 2998) | GI50 (NCI-H23) | GI50 (RXF 393) | GI50 (DU-145) | GI50 (NCI-H460) | GI50 (TK-10) | GI50 (SR) | GI50 (UACC-62) | GI50 (SNB-19) | GI50 (RPMI-8226) | GI50 (ACHN) | GI50 (UACC-257)
1 | O=C1/C(=C/c2ccc(O)c(O)c2)CC/C1=C\c1ccc(O)c(O)c1 | 15.7 µM (inactive) | 22.7 µM (inactive) | 5.52 µM (inactive) | 4.66 µM (inactive) | 2.29 µM (inactive) | 10.7 µM (inactive) | 3.03 µM (inactive) | 5.04 µM (inactive) | > 21.6 µM (inactive) | 3.09 µM (inactive) | 3.25 µM (inactive) | 9.46 µM (inactive) | 9.66 µM (inactive) | > 25.9 µM (inactive) | 2.3 µM (inactive) | 3.79 µM (inactive) | 7.11 µM (inactive) | 2.23 µM (inactive) | 4.98 µM (inactive) | 20.8 µM (inactive)
2 | Nc1nc(-c2cccs2)cs1 | 58.6 µM (inactive) | > 100 µM (inactive) | > 100 µM (inactive) | 66.8 µM (inactive) | 54.6 µM (inactive) | 43.3 µM (inactive) | > 100 µM (inactive) | 95.5 µM (inactive) | 57.9 µM (inactive) | > 100 µM (inactive) | > 100 µM (inactive) | > 100 µM (inactive) | 47.9 µM (inactive) | 87.9 µM (inactive) | 69.5 µM (inactive) | 83.9 µM (inactive) | > 100 µM (inactive) | 90.8 µM (inactive) | 98.6 µM (inactive) | > 100 µM (inactive)
3 | COC(=O)/C=C(C)/C=C\COC1CCCCO1 (stereo not given) | > 100 µM (inactive) | > 100 µM (inactive) | > 100 µM (inactive) | > 100 µM (inactive) | > 100 µM (inactive) | > 100 µM (inactive) | > 100 µM (inactive) | > 100 µM (inactive) | > 100 µM (inactive) | > 100 µM (inactive) | > 100 µM (inactive) | > 100 µM (inactive) | > 100 µM (inactive) | > 100 µM (inactive) | > 100 µM (inactive) | > 100 µM (inactive) | > 100 µM (inactive) | > 100 µM (inactive) | > 100 µM (inactive) | > 100 µM (inactive)
4 | N#Cc1c(=O)c2cc([N+](=O)[O-])ccc2n2c1[nH]c1ccccc12 | 7.57 µM (inactive) | 5.25 µM (inactive) | 8.67 µM (inactive) | 4.44 µM (inactive) | 4.3 µM (inactive) | 23.1 µM (inactive) | 7.96 µM (inactive) | 9.08 µM (inactive) | 7.21 µM (inactive) | 3.19 µM (inactive) | 3.55 µM (inactive) | 8.05 µM (inactive) | 4.99 µM (inactive) | 5.92 µM (inactive) | 10.7 µM (inactive) | 4.59 µM (inactive) | 5.41 µM (inactive) | 1.91 µM (inactive) | 9.48 µM (inactive) | 7.46 µM (inactive)
5 | CC1(C)[C@@H]2CC[C@@]1(C)CN(CCC[N+](C)(C)C)C2 | > 100 µM (inactive) | > 100 µM (inactive) | > 100 µM (inactive) | > 100 µM (inactive) | > 100 µM (inactive) | > 100 µM (inactive) | > 100 µM (inactive) | > 100 µM (inactive) | > 100 µM (inactive) | > 100 µM (inactive) | > 100 µM (inactive) | > 100 µM (inactive) | > 100 µM (inactive) | > 100 µM (inactive) | > 100 µM (inactive) | > 100 µM (inactive) | > 100 µM (inactive) | > 100 µM (inactive) | > 100 µM (inactive) | > 100 µM (inactive)
6 | COc1ccc(/N=C2/C(=N/c3ccc(OC)cc3)N(c3ccccc3)C(=S)N2N=C=C2Sc3ccccc3N2C)cc1 | > 100 µM (inactive) | > 100 µM (inactive) | > 100 µM (inactive) | > 100 µM (inactive) | > 100 µM (inactive) | > 100 µM (inactive) | 57.4 µM (inactive) | > 100 µM (inactive) | > 100 µM (inactive) | 9.27 µM (inactive) | 3.75 µM (inactive) | > 100 µM (inactive) | > 100 µM (inactive) | 32.1 µM (inactive) | > 100 µM (inactive) | > 100 µM (inactive) | > 100 µM (inactive) | > 100 µM (inactive) | > 100 µM (inactive) | > 100 µM (inactive)
7 | Cn1c(=O)c2c(nc(Nc3ccc(Cl)cc3)n3c(=O)n(-c4ccccc4)c(=O)n23)n(C)c1=O | > 100 µM (inactive) | > 100 µM (inactive) | > 100 µM (inactive) | > 100 µM (inactive) | > 100 µM (inactive) | > 100 µM (inactive) | > 100 µM (inactive) | > 100 µM (inactive) | > 100 µM (inactive) | > 100 µM (inactive) | > 100 µM (inactive) | > 100 µM (inactive) | > 100 µM (inactive) | > 100 µM (inactive) | > 100 µM (inactive) | > 100 µM (inactive) | > 100 µM (inactive) | > 100 µM (inactive) | > 100 µM (inactive) | > 100 µM (inactive)
8 | N#Cc1c(-c2ccc([N+](=O)[O-])cc2)cc(-c2ccc(Nc3ccnc4cc(C(F)(F)F)ccc34)cc2)nc1N | 13 µM (inactive) | > 41.3 µM (inactive) | 33 µM (inactive) | 7.89 µM (inactive) | 14.7 µM (inactive) | 36.1 µM (inactive) | 11.7 µM (inactive) | 37.2 µM (inactive) | 14.1 µM (inactive) | 23.2 µM (inactive) | 19.1 µM (inactive) | 13.1 µM (inactive) | 11.9 µM (inactive) | > 48.2 µM (inactive) | 1.79 µM (inactive) | 62.4 µM (inactive) | 18.6 µM (inactive) | 4.27 µM (inactive) | 29.6 µM (inactive) | > 50 µM (inactive)
9 | Cc1ccc2c(c1)C=CC(C#N)N2C(=O)Oc1ccccc1 (stereo not given) | 29.5 µM (inactive) | 22.7 µM (inactive) | 29.9 µM (inactive) | 20.8 µM (inactive) | 27.7 µM (inactive) | 18.1 µM (inactive) | 40.8 µM (inactive) | 22.8 µM (inactive) | 16.6 µM (inactive) | 19.5 µM (inactive) | 37.7 µM (inactive) | 17.9 µM (inactive) | 29.6 µM (inactive) | 31 µM (inactive) | 19.4 µM (inactive) | 31.4 µM (inactive) | 31.8 µM (inactive) | 17.9 µM (inactive) | 27 µM (inactive) | 39.8 µM (inactive)
10 | Nc1c(-c2ccccc2)c2ccc([N+](=O)[O-])cc2c(=O)n1-c1cccc(C(=O)O)c1 | > 100 µM (inactive) | > 100 µM (inactive) | > 100 µM (inactive) | > 100 µM (inactive) | > 100 µM (inactive) | > 100 µM (inactive) | > 100 µM (inactive) | 51.9 µM (inactive) | > 100 µM (inactive) | > 100 µM (inactive) | > 100 µM (inactive) | > 100 µM (inactive) | > 100 µM (inactive) | > 100 µM (inactive) | > 100 µM (inactive) | > 100 µM (inactive) | > 100 µM (inactive) | > 100 µM (inactive) | > 100 µM (inactive) | > 100 µM (inactive)
11 | CCCCCCCCC[C@@H]1C[C@@H]2CCC3C(C(=O)OC)=C(C)N=C(N1)N32 (stereo not given in full) | 12.3 µM (inactive) | 11.1 µM (inactive) | 5.05 µM (inactive) | 10.6 µM (inactive) | 15.3 µM (inactive) | 10.5 µM (inactive) | 5.46 µM (inactive) | 10.6 µM (inactive) | 2.86 µM (inactive) | 3.85 µM (inactive) | 2.64 µM (inactive) | 6.41 µM (inactive) | 3.65 µM (inactive) | 13.2 µM (inactive) | 3.91 µM (inactive) | 4.52 µM (inactive) | 4.18 µM (inactive) | 6 µM (inactive) | 16.1 µM (inactive) | 10.5 µM (inactive)
12 | N#Cc1c2c(c(Nc3ccc(F)cc3)n3c1nc1ccccc13)CCC2 | 5.93 µM (inactive) | 14.3 µM (inactive) | 3.55 µM (inactive) | 7.8 µM (inactive) | 2.45 µM (inactive) | 11.3 µM (inactive) | 5.89 µM (inactive) | 7.19 µM (inactive) | 18.4 µM (inactive) | 4.93 µM (inactive) | 2.14 µM (inactive) | 3.61 µM (inactive) | 7.21 µM (inactive) | 3.7 µM (inactive) | 10.2 µM (inactive) | 10.9 µM (inactive) | 8.61 µM (inactive) | 2.28 µM (inactive) | 2.29 µM (inactive) | 7.96 µM (inactive)
13 | CCc1nc(N)nc(N)c1-c1ccc([N+](=O)[O-])c(Cl)c1 | 0.416 µM (active) | 34.7 µM (inactive) | 4.29 µM (inactive) | 39.5 µM (inactive) | 9.04 µM (inactive) | 5.74 µM (inactive) | 2.65 µM (inactive) | 14.9 µM (inactive) | 10 µM (inactive) | 3.56 µM (inactive) | 16.1 µM (inactive) | 10.8 µM (inactive) | 0.42 µM (active) | 24.9 µM (inactive) | 1.74 µM (inactive) | 1.73 µM (inactive) | 17.9 µM (inactive) | 8.36 µM (inactive) | 2.73 µM (inactive) | 31 µM (inactive)
14 | O=C(C/C(=N/O)C(F)(F)F)c1cccs1 | > 100 µM (inactive) | 30.8 µM (inactive) | > 100 µM (inactive) | > 100 µM (inactive) | > 100 µM (inactive) | > 100 µM (inactive) | > 100 µM (inactive) | > 100 µM (inactive) | > 100 µM (inactive) | > 100 µM (inactive) | > 100 µM (inactive) | > 100 µM (inactive) | > 100 µM (inactive) | > 100 µM (inactive) | > 100 µM (inactive) | > 100 µM (inactive) | 50 µM (inactive) | > 100 µM (inactive) | > 100 µM (inactive) | > 100 µM (inactive)
